According to publication PMC3282010 (The AAPS Journal, 2011):
Where two headings read alike, the source gives them in different places. Marks after values point to notes of the source that are not given here.

Legend:
OATP1B1 [1] = target: T1, OATP1B1 (Homo sapiens, UniProt Q9Y6L6)
[2] = for Total plasma concentration at steady-state: healthy subjects, 10-mg once-daily regimen; for Ratio of geometric means of AUCτ / Ratio of geometric means of C tr: macitentan + Cs vs macitentan; for Ratio of geometric means of AUCτ: AUC(384h-408h)/AUC(96h-120h); for Ratio of geometric means of C tr: period 2 versus period 1
[3] = human, in vivo
wild-type CHO cells = conditions: 3 μM, incubation for 40 s, 37°C; mean ± SD
OATP1B1 [4] = target: T1, OATP1B1; conditions: for Uptake into OATP1B1 over-expressing cells: 3 μM, incubation for 40 s, 37°C, mean ± SD; for Difference in uptake rate between wild-type and OATP over-expressing cells: OATP1B1, different concentrations tested (Fig. 6)
OATP1B3 [5] = target: T2, OATP1B3 (Homo sapiens, UniProt Q9NPD5); conditions: for Uptake into OATP1B3 over-expressing cells: 3 μM, incubation for 40 s, 37°C, mean ± SD; for Difference in uptake rate between wild-type and OATP over-expressing cells: OATP1B3, different concentrations tested (Fig. 6)
T2 sequence (Q9NPD5 whole entry): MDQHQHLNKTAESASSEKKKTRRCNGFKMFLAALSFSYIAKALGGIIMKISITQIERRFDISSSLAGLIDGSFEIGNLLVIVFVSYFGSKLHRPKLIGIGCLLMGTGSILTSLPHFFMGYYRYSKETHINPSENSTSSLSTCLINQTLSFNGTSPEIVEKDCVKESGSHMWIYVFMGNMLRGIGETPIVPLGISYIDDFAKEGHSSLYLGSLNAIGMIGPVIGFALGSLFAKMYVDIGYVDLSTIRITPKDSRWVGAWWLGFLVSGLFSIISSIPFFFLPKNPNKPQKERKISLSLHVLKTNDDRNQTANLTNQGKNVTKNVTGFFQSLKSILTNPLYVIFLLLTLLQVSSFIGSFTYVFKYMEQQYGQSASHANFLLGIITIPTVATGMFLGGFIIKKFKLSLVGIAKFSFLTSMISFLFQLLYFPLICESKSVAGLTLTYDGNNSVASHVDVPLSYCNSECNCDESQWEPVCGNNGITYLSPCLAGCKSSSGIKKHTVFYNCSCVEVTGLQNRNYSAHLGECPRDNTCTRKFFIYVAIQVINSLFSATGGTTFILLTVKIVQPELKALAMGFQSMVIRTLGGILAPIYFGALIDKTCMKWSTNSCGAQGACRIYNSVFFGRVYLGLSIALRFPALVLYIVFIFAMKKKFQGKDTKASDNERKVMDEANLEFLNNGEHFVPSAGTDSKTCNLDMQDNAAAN

OATP1B1 [6] = target: T1, OATP1B1; conditions: OATP inhibition IC50 versus free plasma concentration
clinical [7] = conditions: human, plasma, oral, AUCτ, part A, macitentan + Cs, 384–408 h (day 17 of period 2), steady-state, geometric mean (95% CI)
[8] = cited from earlier work
[9] = cited from earlier work; remark: listed apart in the source
[10] = strong CYP3A4 inhibitor; cited from earlier work
OATP1B3 [11] = target: T2, OATP1B3
clinical [12] = conditions: human, in vivo, AUCτ
[13] = tested on: endothelin ETA and ETB receptor; conditions: dual ERA; cited from earlier work
[14] = in humans, after the first day of co-administration of Cs; cited from earlier work
[15] = macitentan + Cs versus macitentan alone
[16] = part A, macitentan + Cs, 384–408 h (day 17 of period 2), geometric mean (95% CI)
[17] = part A, macitentan alone, 96–120 h (day 5 of period 1), geometric mean (95% CI)

T1 sequence (Q9Y6L6 whole entry): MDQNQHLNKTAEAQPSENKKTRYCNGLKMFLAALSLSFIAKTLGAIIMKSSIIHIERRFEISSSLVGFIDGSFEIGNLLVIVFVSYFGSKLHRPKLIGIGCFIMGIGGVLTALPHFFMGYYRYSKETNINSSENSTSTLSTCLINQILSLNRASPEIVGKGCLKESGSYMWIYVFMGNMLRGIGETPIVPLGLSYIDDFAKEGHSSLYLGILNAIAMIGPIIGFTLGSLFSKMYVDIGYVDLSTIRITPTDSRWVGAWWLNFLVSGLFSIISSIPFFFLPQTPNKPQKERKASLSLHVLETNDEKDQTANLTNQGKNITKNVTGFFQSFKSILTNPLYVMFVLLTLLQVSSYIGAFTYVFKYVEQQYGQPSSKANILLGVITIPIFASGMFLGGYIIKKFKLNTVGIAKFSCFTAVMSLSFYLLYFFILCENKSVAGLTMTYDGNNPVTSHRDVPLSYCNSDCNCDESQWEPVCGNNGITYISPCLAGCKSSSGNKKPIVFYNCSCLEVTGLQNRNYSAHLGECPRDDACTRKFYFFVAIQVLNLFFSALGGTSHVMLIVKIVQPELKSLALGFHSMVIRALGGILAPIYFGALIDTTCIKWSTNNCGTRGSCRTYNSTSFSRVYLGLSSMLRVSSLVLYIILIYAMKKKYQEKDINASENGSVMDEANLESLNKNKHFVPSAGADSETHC

Row | SMILES | IC50 (OATP1B1 [1]) | Total plasma concentration at steady-state [2] | Increase of steady-state AUCτ in the presence of Cs [2, 15] | Ratio of geometric means of AUCτ ([2]; part A) | Ratio of geometric means of C tr ([2]; part A) | C tr [2, 16] | C tr [2, 17] | Decrease of steady-state AUCτ in the presence of rifampin [3] | Ratio of geometric means of AUCτ [3] | Ratio of geometric means of C tr [3] | Uptake into wild-type cells (wild-type CHO cells) | Uptake into OATP1B1 over-expressing cells (OATP1B1 [4]) | Difference in uptake rate between wild-type and OATP over-expressing cells (OATP1B1 [4]) | Uptake into OATP1B3 over-expressing cells (OATP1B3 [5]) | Difference in uptake rate between wild-type and OATP over-expressing cells (OATP1B3 [5]) | Free steady-state plasma concentration lower than the lowest IC50 determined (OATP1B1 [6]) | AUC (clinical [7]) | elimination half-life (t 1/2) ([8]; in humans) | Binding to human plasma proteins in vitro [9] | other results
1 | CCCNS(=O)(=O)Nc1ncnc(OCCOc2ncc(Br)cn2)c1-c1ccc(Br)cc1 [Macitentan] | 6.3 ± 0.7 µM | approximately 0.63 μM | 10% | 1.10^a ng·h/mL | 1.38^a ng·h/mL | 220 (176, 274) ng/mL | 159 (121, 209) ng/mL | 79% | 0.21^a ng·h/mL | 0.07^a ng·h/mL | 346 ± 3 pmol/mg | 362 ± 6 pmol/mg | No marked difference | 387 ± 11 pmol/mg | No marked difference | around 2,490 fold | 7560 ng·h/mL | approximately 16 h | 99.6% | Tolerability ([2]; co-administered with Cs, healthy male subjects): well tolerated; Subjects affected by treatment-emergent AEs ([2]; part A, period 1 (macitentan alone), 10 subjects): 30%; Reduction in exposure in the presence of rifampin [3]: approximately four-fold; Tolerability [3]: well tolerated; Time to maximum plasma concentrations after administration ([8]; in humans): approximately 8 h; Tolerability ([8]; single-ascending dose study, doses of up to 300 mg): well tolerated; Increase of AUC0–∞ in the presence of ketoconazole [10]: approximately two-fold
2 | CCCNS(=O)(=O)Nc1ncnc(OCC(=O)O)c1-c1ccc(Br)cc1 [ACT-373898] | – | – | 7% | 1.07^a ng·h/mL | 1.12^a ng·h/mL | 20 (15, 26) ng/mL | 17 (13, 24) ng/mL | 64% | 0.36^a ng·h/mL | 0.14^a ng·h/mL | – | – | – | – | – | – | – | – | – | AUCτ ([2]; part A, macitentan + Cs, 384–408 h (day 17 of period 2), steady-state, plasma, geometric mean (95% CI)): 568 (432, 747) ng·h/mL
3 | NS(=O)(=O)Nc1ncnc(OCCOc2ncc(Br)cn2)c1-c1ccc(Br)cc1 [ACT-132577] | 19.9 ± 1.4 µM | ~1.5 µM | – | 0.97 ng·h/mL | 1.02 ng·h/mL | 640 (550, 745) ng/mL | 626 (547, 717) ng/mL | 0.3% | 1.00 ng·h/mL | 0.83^a ng·h/mL | 214 ± 11 pmol/mg | 237 ± 7 pmol/mg | No marked difference | 288 ± 10 pmol/mg | No marked difference | around 2,490 fold | 16400 ng·h/mL | approximately 48 h | 99.5% | IC50 (OATP1B3 [11]): 51.6 ± 3 µM; Systemic exposure in humans relative to macitentan (higher) ([2]; in humans): 2.5 fold; Decrease of steady-state AUCτ in the presence of Cs [2, 15]: 3%; AUCτ [3]: 14,798 (13,216, 16,569) ng·h/mL; AUC (clinical [12]): 14800 ng·h/mL; Potency in vitro relative to macitentan (less potent) [13]: approximately five-fold
4 | COc1ccccc1Oc1c(NS(=O)(=O)c2ccc(C(C)(C)C)cc2)nc(-c2ncccn2)nc1OCCO [bosentan] | – | – | – | – | – | – | – | – | – | – | – | – | – | – | – | – | – | – | – | Increase in exposure in the presence of Cs [14]: 30 fold
